For series [1], the system named is T. mentagrophytes ATCC18748. Put plainly: Measurement of antifungal activity (MIC, WST8 growth inhibition). The conditions noted are these: Trichophyton mentagrophytes, 72 h; 80% growth inhibition concentration; T. mentagrophytes ATCC18748, RPMI1640/MOPS, 28° C., 3 days. It is filed as cell-based. Here is the method:
(§1) The compounds for evaluation were dissolved in dimethyl sulfoxide (DMSO) and used. As the test medium, RPMI1640 medium containing 0.165 M 3-morpholino propane sulfonic acid (MOPS) was used. As the test strain, T. mentagrophytes ATCC18748 or T. rubrum ATCC10218 was used. 100 μL of the test strain each at a concentration of 1×10^4 conidia/mL was dispensed, mixed with compounds for evaluation on 96 well half area plate so that the concentration of DMSO becomes 1%, and cultured at 28° C. for 3 days (for T. mentagrophytes) or for 4 days (for T. rubrum). Then, 5 μL of Cell Counting Kit8 (WST8) was added and the absorbances at 450 nm and 595 nm was measured as background. Subsequently, they were incubated at 28° C. for 5 hours (for T. mentagrophytes) or overnight (for T. rubrum) to color, and again the absorbances at 450 nm and 595 nm was measured, and then calculated the growth inhibition percentages using the differences from the background, and 80% growth inhibition concentration was regarded as MIC (μg/ml). Measurement of antifungal activity was conducted by the following method. Compounds for evaluation were dissolved in dimethyl sulfoxide (DMSO) and used. As the test medium, RPMI1640 medium containing 0.165 M 3-morpholinopropane sulfonic acid (MOPS) was used. As the test strain, T. mentagrophytes ATCC18748 or T. rubrum ATCC10218 was used. 100 μL of the test strain was dispensed at a concentration of 1×10^4 conidia/mL, mixed with compounds for evaluation on 96 well half area plate so that the concentration of DMSO becomes 1%, and cultured at a culture temperature of 28° C. for 3 days (for T. mentagrophytes) or for 4 days (for T. rubrum). Then, 5 μL of Cell Counting Kit8 (WST8) was added and the absorbances at 450 nm and 595 nm was measured as background. Subsequently, they were incubated at 28° C. for 5 hours (for T. mentagrophytes) or overnight (for T. rubrum), and again measured the absorbances at 450 nm and 595 nm was measured, and then calculated the growth inhibition percentages using the differences from the background, and 80% growth inhibition concentration was regarded as MIC (μg/ml).
On the technique in general: Formazan colour is commonly taken as a measure of viable cells.

In series [2] the test system is T. rubrum ATCC10218. Described as above. It counts as cell-based. The conditions noted are these: Trichophyton rubrum, 96 h; 80% growth inhibition concentration; T. rubrum ATCC10218, RPMI1640/MOPS, 28° C., 4 days. As for the experimental part: as §1
The nature of series [3]: Nail permeability test (bovine hoof slice on agarose). It is filed as in vitro ADME. To be noted: 2 μL of 10 mg/mL solution on bovine hoof slice (about 100 μm), 28° C., 5 days. As for the experimental part:
Compounds for evaluation were each dissolved in a solution of ethyl acetate:propylene glycol (1:1) or dimethyl sulfoxide at a concentration of 10 mg/mL. 2 μL each of the solutions was added to a bovine hoof slice placed on a low-melting-point agarose. After incubation at 28° C. for 5 days, the agaroses were collected, distilled water was added thereto, and the mixtures were heated and dissolved. The concentrations of the compound in the solutions were determined using a high performance liquid chromatography/mass spectrometry apparatus to obtain the amounts of the agents permeated through the hoof and to calculate the permeabilities of the respective agents. Since the permeability of bovine hoof and human nail correlates as described in J. Pharma. Pharmacol., vol. 49, pp. 866-872, 1997, the nail permeability test was conducted using a bovine hoof in the present invention. Example compounds and comparative compounds (amorolfine hydrochloride, terbinafine hydrochloride and ciclopirox) were each dissolved in a solution of ethyl acetate:propylene glycol (1:1) or dimethyl sulfoxide at a concentration of 10 mg/mL. […] The concentrations of the compounds in the solutions were determined using a high performance liquid chromatography/mass spectrometry apparatus to obtain the amounts of the agents permeated through the nail and calculate the permeabilities of the respective agents.

The term MIC denotes the smallest concentration in the dilution series that meets the test's criterion for growth inhibition. Broadly, the inhibition of growth is the drop in the measured response relative to a control, in per cent. A lower inhibition of growth goes with little suppression.

≈ marks a conversion by molar mass, not a printed value. Structures can show the parent of a compound that is named as a salt.

As for `CCC(C)(C)c1ccc(CC(C)CN2C[C@@H](C)O[C@@H](C)C2)cc1` (some centres unmarked) [Amorolfine hydrochloride, reference compound], the MIC was at most 1 µg/mL in series [1] and at most 2 µg/mL in series [2]. In addition, the Nail permeability result in series [3] is on record as “E (<0.1%)”.

With `COc1ccc(-n2nc(C)cc2C)c(O)c1` [Example 45, 2-(3,5-Dimethyl-1H-pyrazol-1-yl)-5-methoxyphenol], the results for the MIC in series [1] and in series [2] were at most 1 µg/mL and at most 2 µg/mL, respectively.

With `Cc1nn(-c2ccc(F)cc2O)c(C)c1Cl` [Example 21, 2-(4-Chloro-3,5-dimethyl-1H-pyrazol-1-yl)-5-fluoro phenol], the MIC is at most 1 µg/mL in series [1] and 4 to 16 µg/mL (≈ 16.6 to 66.5 µM) in series [2].

With `Cc1nn(-c2ccc(Br)cc2O)c(C)c1C` [Example 56, 5-bromo-2-(3,4,5-trimethyl-1H-pyrazol-1-yl)phenol], the MIC was at most 1 µg/mL in series [1] and at most 2 µg/mL in series [2].

In the case of `CCc1ccc(-n2nc(C)cc2C)c(O)c1` [Example 52, 2-(3,5-dimethyl-1H-pyrazol-1-yl)-5-ethylphenol], the results for the MIC in series [1] and in series [2] were at most 1 µg/mL and at most 2 µg/mL, respectively.

With `CCc1cc(CC)n(-c2ccccc2O)n1` [Example 14, 2-(3,5-Diethyl-1H-pyrazol-1-yl)phenol], the values for the minimal inhibitory concentration (MIC) in series [1] and in series [2] were 2 to 8 µg/mL (≈ 9.25 to 37 µM) and 4 to 16 µg/mL (≈ 18.5 to 74 µM), respectively.

Regarding `Cc1cc(C)n(-c2ccc(Cl)cc2O)n1` [Example 26, 5-Chloro-2-(3,5-dimethyl-1H-pyrazol-1-yl)phenol], the MIC in series [1] is at most 1 µg/mL; in series [2] it was at most 2 µg/mL.

For `CN(C/C=C/C#CC(C)(C)C)Cc1cccc2ccccc12` [Terbinafine hydrochloride, reference compound], the minimal inhibitory concentration (MIC) is at most 1 µg/mL in series [1] and at most 2 µg/mL in series [2]. In addition, the Nail permeability entry in series [3] is “E (<0.1%)”.

Take `Cc1ccnn1-c1ccccc1O` [Example 8, 2-(5-Methyl-1H-pyrazol-1-yl)phenol]: the minimal inhibitory concentration (MIC) in series [1] was 16 to 32 µg/mL (≈ 91.8 to 184 µM); in series [2] it was over 64 µg/mL.

`Cc1ccc(O)c(-n2nc(C)cc2C)c1` [Example 49, 2-(3,5-Dimethyl-1H-pyrazol-1-yl)-4-methylphenol] displayed an inhibition of growth at 32 µg/mL in series [1] of under 50%. For the same compound, the MIC in series [2] was in the range of 32 to 64 µg/mL (≈ 158 to 316 µM).

In the case of `Cc1nn(-c2ccc(F)cc2O)c(C)c1C` [Example 18, 5-Fluoro-2-(3,4,5-trimethyl-1H-pyrazol-1-yl)phenol], the MIC in series [1] was 2 to 8 µg/mL (≈ 9.08 to 36.3 µM); in series [2], 4 to 16 µg/mL (≈ 18.2 to 72.6 µM).

Consider `Cc1nn(-c2ccc(Br)cc2O)c(C)c1Cl` [Example 55, 5-bromo-2-(4-chloro-3,5-dimethyl-1H-pyrazol-1-yl)phenol], for which the figures for the MIC in series [1] and in series [2] were at most 1 µg/mL and at most 2 µg/mL, respectively.

For the compound `Cc1cc(C)n(-c2ccc(N)cc2O)n1` [Example 31, 5-Amino-2-(3,5-dimethyl-1H-pyrazol-1-yl)phenol], the minimal inhibitory concentration (MIC) in series [1] fell in the range of 2 to 8 µg/mL (≈ 9.84 to 39.4 µM); in series [2] it was 4 to 16 µg/mL (≈ 19.7 to 78.7 µM).

As to `Cc1nn(-c2ccccc2O)c(C)c1C` [Example 9, 2-(3,4,5-Trimethyl-1H-pyrazol-1-yl)phenol], the minimum inhibitory concentration (MIC) was at most 1 µg/mL in series [1] and at most 2 µg/mL in series [2].

For `Cc1cc(C)n(-c2cc(Cl)ccc2O)n1` [Example 11, 4-Chloro-2-(3,5-dimethyl-1H-pyrazol-1-yl)phenol], the MIC in series [1] was 16 to 32 µg/mL (≈ 71.9 to 144 µM); in series [2] it was 32 to 64 µg/mL (≈ 144 to 287 µM).

As for `Cc1nn(-c2ccccc2O)c(C)c1F` [Example 53, 2-(4-Fluoro-3,5-dimethyl-1H-pyrazol-1-yl)phenol], the values for the MIC in series [1] and in series [2] were 2 to 8 µg/mL (≈ 9.7 to 38.8 µM) and 4 to 16 µg/mL (≈ 19.4 to 77.6 µM), respectively.

With `COC(=O)c1ccc(-n2nc(C)cc2C)c(O)c1` [Example 35, Methyl 4-(3,5-dimethyl-1H-pyrazol-1-yl)-3-hydroxybenzene carboxylate], the MIC in series [1] and in series [2] was 16 to 32 µg/mL (≈ 65 to 130 µM) in each case.

In the case of `Cc1cc(C)n(-c2ccc(C(=O)N(C)C)cc2O)n1` [Example 38, 4-(3,5-Dimethyl-1H-pyrazol-1-yl)-3-hydroxy-N,N-dimethylbenzamide], the minimal inhibitory concentration (MIC) was 16 to 32 µg/mL (≈ 61.7 to 123 µM) in series [1] and 4 to 16 µg/mL (≈ 15.4 to 61.7 µM) in series [2].

`Cc1nn(-c2ccc(C(=O)O)cc2O)c(C)c1C` [Example 40, 3-Hydroxy-4-(3,4,5-trimethyl-1H-pyrazol-1-yl)benzene carboxylic acid] displayed an inhibition of growth at 32 µg/mL in series [1] of under 50%. The same compound had a minimum inhibitory concentration (MIC) in series [2] of 32 to 64 µg/mL (≈ 130 to 260 µM).

For the compound `Cc1nn(-c2ccc(N)cc2O)c(C)c1C` [Example 34, 5-Amino-2-(3,4,5-trimethyl-1H-pyrazol-1-yl)phenol], the minimum inhibitory concentration (MIC) in series [1] was 2 to 8 µg/mL (≈ 9.21 to 36.8 µM); in series [2] it was 4 to 16 µg/mL (≈ 18.4 to 73.6 µM).

As for `Cc1cc(C)n(-c2c(C)cccc2O)n1` [Example 46, 2-(3,5-Dimethyl-1H-pyrazol-1-yl)-3-methylphenol], the inhibition of growth at 32 µg/mL in series [1] is under 50%. In series [2], this compound gave an MIC of 32 to 64 µg/mL (≈ 158 to 316 µM).

As to `Cc1cc(C)n(-c2cc(Cl)c(C)cc2O)n1` [Example 61, 4-chloro-2-(3,5-dimethyl-1H-pyrazol-1-yl)-5-methylphenol], the MIC in series [1] and in series [2] was 16 to 32 µg/mL (≈ 67.6 to 135 µM) throughout.

`Cc1cc(C)n(-c2ccc(F)cc2O)n1` [Example 25, 2-(3,5-Dimethyl-1H-pyrazol-1-yl)-5-fluorophenol]: the figures for the MIC in series [1] and in series [2] were 2 to 8 µg/mL (≈ 9.7 to 38.8 µM) and 4 to 16 µg/mL (≈ 19.4 to 77.6 µM), respectively.

Regarding `Cc1cc(C)n(-c2ccc(C(=O)O)cc2O)n1` [Example 37, 4-(3,5-Dimethyl-1H-pyrazol-1-yl)-3-hydroxybenzene carboxylic acid], the minimal inhibitory concentration (MIC) in series [1] lay within 2 to 8 µg/mL (≈ 8.61 to 34.4 µM); in series [2] it was 4 to 16 µg/mL (≈ 17.2 to 68.9 µM).

The record behind these values is patent US8889727B2, “Topical antifungal agent” (Meiji Seika Pharma Co., Ltd., priority 2011, dated 2014).
